Laboratory results: ChEMBL document CHEMBL1201861, “Genomics of Drug Sensitity in Cancer screening data, Wellcome Trust Sanger Institute”

Tests used:
Experiment in all cases: cells
COLO-741 = assay type: functional, cell-based, Homo sapiens; conditions: Homo sapiens, COLO-741
Description: SANGER: Inhibition of human COLO-741 cell growth in a cell viability assay.

COLO-800 = assay type: functional, cell-based, Homo sapiens; conditions: Homo sapiens, COLO-800;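 note: growth inhibition of COLO-800 cells, read out with a cell viability assay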
Description: SANGER: Inhibition of human COLO-800 cell growth in a cell viability assay.

CTV-1 = assay type: functional, cell-based; conditions: Homo sapiens;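 note: growth inhibition of the cell line, read out with a cell viability assay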
Description: SANGER: Inhibition of human CTV-1 cell growth in a cell viability assay.

ChaGo-K-1 = assay type: functional, cell-based; conditions: Homo sapiens;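 note: growth inhibition of ChaGo-K-1 cells, read out with a cell viability assay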
Description: SANGER: Inhibition of human ChaGo-K-1 cell growth in a cell viability assay.

DJM-1 = assay type: functional, cell-based, Homo sapiens; conditions: Homo sapiens, DJM-1;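 note: growth inhibition of human DJM-1 cells, read out by a cell viability assay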
Description: SANGER: Inhibition of human DJM-1 cell growth in a cell viability assay.

DSH1 = assay type: functional, cell-based, Homo sapiens; conditions: Homo sapiens, DSH1;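 note: growth inhibition of human DSH1 cells, measured with a cell viability readout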
Description: SANGER: Inhibition of human DSH1 cell growth in a cell viability assay.

Detroit 562 = assay type: functional, cell-based, Homo sapiens; conditions: Homo sapiens, Detroit 562;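 note: growth inhibition of human Detroit 562 cells, read out by a cell viability assay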
Description: SANGER: Inhibition of human Detroit562 cell growth in a cell viability assay.

EFO-21 = assay type: functional, cell-based, Homo sapiens; conditions: Homo sapiens, EFO-21;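 note: growth inhibition of EFO-21 cells measured with a viability assay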
Description: SANGER: Inhibition of human EFO-21 cell growth in a cell viability assay.

EW-1 = assay type: functional, cell-based, Homo sapiens; conditions: Homo sapiens, EW-1;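 note: growth inhibition of the human EW-1 cell line, read out by a cell viability assay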
Description: SANGER: Inhibition of human EW-1 cell growth in a cell viability assay.

EOL1 = assay type: functional, cell-based; conditions: Homo sapiens;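 note: growth inhibition of EoL-1 cells, read out by a cell viability assay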
Description: SANGER: Inhibition of human EoL-1-cell cell growth in a cell viability assay.

FTC-133 = assay type: functional, cell-based, Homo sapiens; conditions: Homo sapiens, FTC-133
G-401 = assay type: functional, cell-based, Homo sapiens; conditions: Homo sapiens, G-401
Description: SANGER: Inhibition of human G-401 cell growth in a cell viability assay.

GMS-10 = assay type: functional, cell-based, Homo sapiens; conditions: Homo sapiens, GMS-10;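 note: growth inhibition of GMS-10 cells, read out as cell viability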
Description: SANGER: Inhibition of human GMS-10 cell growth in a cell viability assay.

H4 = assay type: functional, cell-based; conditions: Homo sapiens
Description: SANGER: Inhibition of human H4 cell growth in a cell viability assay.

HAL-01 = assay type: functional, cell-based; conditions: Homo sapiens;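 note: growth inhibition of human HAL-01 cells, read out with a cell viability assay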
Description: SANGER: Inhibition of human HAL-01 cell growth in a cell viability assay.

HCC 2998 = assay type: functional, cell-based, Homo sapiens; conditions: Homo sapiens, HCC 2998;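 note: growth inhibition of human HCC2998 cells, measured with a cell viability read-out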
Description: SANGER: Inhibition of human HCC2998 cell growth in a cell viability assay.

HCC38 = assay type: functional, cell-based, Homo sapiens; conditions: Homo sapiens, HCC38;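 note: cell viability assay on the human HCC38 cell line, with IC50 marking the concentration that inhibits cell growth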
Description: SANGER: Inhibition of human HCC38 cell growth in a cell viability assay.

HDLM-2 = assay type: functional, cell-based; conditions: Homo sapiens;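 note: cell viability assay measuring suppression of HDLM-2 proliferation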
Description: SANGER: Inhibition of human HDLM-2 cell growth in a cell viability assay.

HOP-92 = assay type: functional, cell-based, Homo sapiens; conditions: Homo sapiens, HOP-92;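 note: cell viability readout, with IC50 reflecting inhibition of HOP-92 cell growth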
Description: SANGER: Inhibition of human HOP-92 cell growth in a cell viability assay.

HT-29 = assay type: functional, cell-based, Homo sapiens; conditions: Homo sapiens, HT-29;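 note: growth inhibition of human HT-29 cells, read out by a cell viability assay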
Description: SANGER: Inhibition of human HT-29 cell growth in a cell viability assay.

HTC-C3 = assay type: functional, cell-based, Homo sapiens; conditions: Homo sapiens, HTC-C3;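 note: inhibition of cell growth, read out with a cell viability assay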
Description: SANGER: Inhibition of human HTC-C3 cell growth in a cell viability assay.

HuP-T4 = assay type: functional, cell-based, Homo sapiens; conditions: Homo sapiens, HuP-T4;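 note: cell viability assay measuring how much HuP-T4 cell growth is inhibited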
Description: SANGER: Inhibition of human HuP-T4 cell growth in a cell viability assay.

IST-SL1 = assay type: functional, cell-based, Homo sapiens; conditions: Homo sapiens, IST-SL1;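 note: growth inhibition of human IST-SL1 cells, read out with a cell viability assay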
Description: SANGER: Inhibition of human IST-SL1 cell growth in a cell viability assay.

KURAMOCHI = assay type: functional, cell-based; conditions: Homo sapiens;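 note: growth inhibition of KURAMOCHI cells, read out with a cell viability assay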
Description: SANGER: Inhibition of human KURAMOCHI cell growth in a cell viability assay.

KY821 = assay type: functional, cell-based; conditions: Homo sapiens;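 note: growth inhibition of human KY821 cells, read out by a cell viability assay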
Description: SANGER: Inhibition of human KY821 cell growth in a cell viability assay.

LCLC-103H cell line = assay type: functional, cell-based, Homo sapiens; conditions: Homo sapiens, LCLC-103H
Description: SANGER: Inhibition of human LCLC-103H cell growth in a cell viability assay.

LN-405 = assay type: functional, cell-based, Homo sapiens; conditions: Homo sapiens, LN-405
Description: SANGER: Inhibition of human LN-405 cell growth in a cell viability assay.

MDA-MB-361 = assay type: functional, cell-based, Homo sapiens; conditions: Homo sapiens, MDA-MB-361
ME-180 = assay type: functional, cell-based; conditions: Homo sapiens;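 note: cell viability assay measuring growth inhibition of ME-180 cells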
Description: SANGER: Inhibition of human ME-180 cell growth in a cell viability assay.

NB69 = assay type: functional, cell-based, Homo sapiens; conditions: Homo sapiens, NB69;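 note: growth inhibition of NB69 cells, determined by a cell viability assay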
Description: SANGER: Inhibition of human NB69 cell growth in a cell viability assay.

NCI-H1395 = assay type: functional, cell-based, Homo sapiens; conditions: Homo sapiens, NCI-H1395;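 note: cell viability assay read-out quantifying reduced proliferation of human NCI-H1395 cells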
Description: SANGER: Inhibition of human NCI-H1395 cell growth in a cell viability assay.

NCI-H2122 = assay type: functional, cell-based, Homo sapiens; conditions: Homo sapiens, NCI-H2122;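 note: growth inhibition of the cells, read out with a cell viability assay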
Description: SANGER: Inhibition of human NCI-H2122 cell growth in a cell viability assay.

NCI-H510A = assay type: functional, cell-based; conditions: Homo sapiens;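 note: growth inhibition of NCI-H510A cells, read out with a cell viability assay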
Description: SANGER: Inhibition of human NCI-H510A cell growth in a cell viability assay.

NCI-H650 = assay type: functional, cell-based, Homo sapiens; conditions: Homo sapiens, NCI-H650;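 note: growth inhibition of NCI-H650 cells, read out by a viability assay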
Description: SANGER: Inhibition of human NCI-H650 cell growth in a cell viability assay.

SNU1 = assay type: functional, cell-based; conditions: Homo sapiens;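 note: growth inhibition of human NCI-SNU-1 cells, measured with a cell viability assay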
Description: SANGER: Inhibition of human NCI-SNU-1 cell growth in a cell viability assay.

NEC8 = assay type: functional, cell-based, Homo sapiens; conditions: Homo sapiens, NEC8;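 note: growth inhibition of human NEC8 cells, read out by a cell viability assay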
Description: SANGER: Inhibition of human NEC8 cell growth in a cell viability assay.

NKM-1 = assay type: functional, cell-based; conditions: Homo sapiens;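 note: growth inhibition of NKM-1 cells, read out with a cell viability assay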
Description: SANGER: Inhibition of human NKM-1 cell growth in a cell viability assay.

OMC-1 = assay type: functional, cell-based, Homo sapiens; conditions: Homo sapiens, OMC-1;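 note: growth inhibition of the OMC-1 cell line, measured by a cell viability assay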
Description: SANGER: Inhibition of human OMC-1 cell growth in a cell viability assay.

OS-RC-2 = assay type: functional, cell-based, Homo sapiens; conditions: Homo sapiens, OS-RC-2;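 note: growth inhibition of human OS-RC-2 cells, measured by a cell viability assay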
Description: SANGER: Inhibition of human OS-RC-2 cell growth in a cell viability assay.

OVCAR-8 = assay type: functional, cell-based, Homo sapiens; conditions: Homo sapiens, OVCAR-8;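 note: growth inhibition of human OVCAR-8 cells, read out by a cell viability assay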
Description: SANGER: Inhibition of human OVCAR-8 cell growth in a cell viability assay.

QIMR-WIL = assay type: functional, cell-based; conditions: Homo sapiens;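 note: growth inhibition of QIMR-WIL cells, read out with a cell viability assay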
Description: SANGER: Inhibition of human QIMR-WIL cell growth in a cell viability assay.

RMG-I = assay type: functional, cell-based, Homo sapiens; conditions: Homo sapiens, RMG-I;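 note: growth inhibition of human RMG-I cells, read out with a cell viability assay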
Description: SANGER: Inhibition of human RMG-I cell growth in a cell viability assay.

SK-N-AS = assay type: functional, cell-based, Homo sapiens; conditions: Homo sapiens, SK-N-AS;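 note: growth inhibition of human SK-N-AS cells, measured with a cell viability assay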
Description: SANGER: Inhibition of human SK-N-AS cell growth in a cell viability assay.

SK-N-FI = assay type: functional, cell-based, Homo sapiens; conditions: Homo sapiens, SK-N-FI;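 note: cell viability assay measuring growth inhibition of human SK-N-FI cells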
Description: SANGER: Inhibition of human SK-N-FI cell growth in a cell viability assay.

BV-173 = assay type: functional, cell-based; conditions: Homo sapiens
Description: SANGER: Inhibition of human BV-173 cell growth in a cell viability assay.

TE-5 = assay type: functional, cell-based, Homo sapiens; conditions: Homo sapiens, TE-5;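 note: inhibition of cell growth, read out by a cell viability assay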
Description: SANGER: Inhibition of human TE-5 cell growth in a cell viability assay.

TGW = assay type: functional, cell-based; conditions: Homo sapiens;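 note: growth inhibition of human TGW cells, read out with a cell viability assay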
Description: SANGER: Inhibition of human TGW cell growth in a cell viability assay.

no-11 = assay type: functional, cell-based, Homo sapiens; conditions: Homo sapiens;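 note: growth inhibition of human NO-11 cells, read out with a cell viability assay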
Description: SANGER: Inhibition of human no-11 cell growth in a cell viability assay.

CCRF-CEM = assay type: functional, cell-based; conditions: Homo sapiens;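 note: inhibition of CCRF-CEM cell growth, measured by a cell viability assay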
Description: SANGER: Inhibition of human CCRF-CEM cell growth in a cell viability assay.

CGTH-W-1 = assay type: functional, cell-based, Homo sapiens; conditions: Homo sapiens, CGTH-W-1;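 note: growth inhibition of human CGTH-W-1 cells measured by cell viability assay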
Description: SANGER: Inhibition of human CGTH-W-1 cell growth in a cell viability assay.

COLO-679 = assay type: functional, cell-based, Homo sapiens; conditions: Homo sapiens, COLO-679
Description: SANGER: Inhibition of human COLO-679 cell growth in a cell viability assay.

COLO-680N = assay type: functional, cell-based, Homo sapiens; conditions: Homo sapiens, COLO-680N;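 note: cell viability assay used to measure inhibition of COLO-680N cell growth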
Description: SANGER: Inhibition of human COLO-680N cell growth in a cell viability assay.

COLO-684 = assay type: functional, cell-based; conditions: Homo sapiens
Description: SANGER: Inhibition of human COLO-684 cell growth in a cell viability assay.

C=CCc1cccc(/C=N/NC(=O)CN2CCN(Cc3ccccc3)CC2)c1O [PAC-1]
IC50 (COLO-741): > 2560 nM | IC50 (COLO-800): > 2560 nM | IC50 (CTV-1): 1960 nM | IC50 (ChaGo-K-1): > 2560 nM | IC50 (DJM-1): > 2560 nM | IC50 (DSH1): > 2560 nM | IC50 (Detroit 562): > 2560 nM | IC50 (EFO-21): > 2560 nM | IC50 (EW-1): > 2560 nM | IC50 (EOL1): > 2560 nM | IC50 (FTC-133): > 2560 nM | IC50 (G-401): 1010 nM | IC50 (GMS-10): > 2560 nM | IC50 (H4): > 2560 nM | IC50 (HAL-01): 788 nM | IC50 (HCC 2998): 1180 nM | IC50 (HCC38): > 2560 nM | IC50 (HDLM-2): 1810 nM | IC50 (HOP-92): > 2560 nM | IC50 (HT-29): > 2560 nM | IC50 (HTC-C3): > 2560 nM | IC50 (HuP-T4): > 2560 nM | IC50 (IST-SL1): > 2560 nM | IC50 (KURAMOCHI): > 2560 nM | IC50 (KY821): > 2560 nM | IC50 (LCLC-103H cell line): 1120 nM | IC50 (LN-405): > 2560 nM | IC50 (MDA-MB-361): > 2560 nM | IC50 (ME-180): > 2560 nM | IC50 (NB69): > 2560 nM | IC50 (NCI-H1395): > 2560 nM | IC50 (NCI-H2122): > 2560 nM | IC50 (NCI-H510A): > 2560 nM | IC50 (NCI-H650): > 2560 nM | IC50 (SNU1): > 2560 nM | IC50 (NEC8): > 2560 nM | IC50 (NKM-1): > 2560 nM | IC50 (OMC-1): > 2560 nM | IC50 (OS-RC-2): > 2560 nM | IC50 (OVCAR-8): > 2560 nM | IC50 (QIMR-WIL): > 2560 nM | IC50 (RMG-I): > 2560 nM | IC50 (SK-N-AS): > 2560 nM | IC50 (SK-N-FI): > 2560 nM | IC50 (BV-173): > 2560 nM | IC50 (TE-5): > 2560 nM | IC50 (TGW): > 2560 nM | IC50 (no-11): > 2560 nM | IC50 (CCRF-CEM): 566 nM | IC50 (CGTH-W-1): > 2560 nM | IC50 (COLO-679): 803 nM | IC50 (COLO-680N): > 2560 nM | IC50 (COLO-684): > 2560 nM

O=C(c1cc(Cc2n[nH]c(=O)c3ccccc23)ccc1F)N1CCN(C(=O)C2CC2)CC1 [OLAPARIB]
IC50 (COLO-741): > 5000 nM | IC50 (COLO-800): 442 nM | IC50 (CTV-1): > 5000 nM | IC50 (ChaGo-K-1): > 5000 nM | IC50 (DJM-1): > 5000 nM | IC50 (DSH1): > 5000 nM | IC50 (Detroit 562): > 5000 nM | IC50 (EFO-21): > 5000 nM | IC50 (EW-1): > 5000 nM | IC50 (EOL1): 564 nM | IC50 (FTC-133): > 5000 nM | IC50 (G-401): > 5000 nM | IC50 (GMS-10): > 5000 nM | IC50 (H4): 4890 nM | IC50 (HAL-01): > 5000 nM | IC50 (HCC 2998): > 5000 nM | IC50 (HCC38): > 5000 nM | IC50 (HDLM-2): > 5000 nM | IC50 (HOP-92): > 5000 nM | IC50 (HT-29): > 5000 nM | IC50 (HTC-C3): > 5000 nM | IC50 (HuP-T4): > 5000 nM | IC50 (IST-SL1): > 5000 nM | IC50 (KURAMOCHI): > 5000 nM | IC50 (KY821): > 5000 nM | IC50 (LCLC-103H cell line): > 5000 nM | IC50 (LN-405): > 5000 nM | IC50 (MDA-MB-361): > 5000 nM | IC50 (ME-180): > 5000 nM | IC50 (NB69): > 5000 nM | IC50 (NCI-H1395): > 5000 nM | IC50 (NCI-H2122): > 5000 nM | IC50 (NCI-H510A): 3830 nM | IC50 (NCI-H650): > 5000 nM | IC50 (SNU1): > 5000 nM | IC50 (NEC8): > 5000 nM | IC50 (NKM-1): 1250 nM | IC50 (OMC-1): > 5000 nM | IC50 (OS-RC-2): > 5000 nM | IC50 (OVCAR-8): > 5000 nM | IC50 (QIMR-WIL): > 5000 nM | IC50 (RMG-I): > 5000 nM | IC50 (SK-N-AS): > 5000 nM | IC50 (SK-N-FI): > 5000 nM | IC50 (BV-173): > 5000 nM | IC50 (TE-5): > 5000 nM | IC50 (no-11): > 5000 nM | IC50 (CCRF-CEM): > 5000 nM | IC50 (CGTH-W-1): > 5000 nM | IC50 (COLO-679): > 5000 nM | IC50 (COLO-680N): > 5000 nM | IC50 (COLO-684): 3520 nM
